From patent US6060518A, “Polymer compositions for chemotherapy and methods of treatment using the same” (Supratek Pharma Inc., priority 1996, dated 2000)
In brackets after ≈: the same amount, converted by molar mass.

Columns and labels:
[1] = tested on: Lewis Lung Carcinoma (3LL) Cell Line, subline H-59; test: XTT cytotoxicity assay, Lewis Lung Carcinoma 3LL (H-59) cells; assay type: cell-based; settings: Mus musculus, read-out: IC50, doxorubicin (concentration producing 50% inhibition of cell growth)
Method: A highly metastatic clonal Lewis Lung Carcinoma cell subline H-59 (3LL) was used to evaluate cytotoxic activity of Prep. C and compare it with that of doxorubicin. To this end, the cells were suspended in RPMI 1640 medium supplemented with 10% fetal calf serum, and plated at 2000-3000 cells/well into 96-well microtiter plates. Prep. C in which doxorubicin final concentrations varied from 1 to 10,000 ng/ml was added to the cells and incubated for 2 hours at 37° C. and 5% CO2. The cells were then washed three times with RPMI 1640 and cultured for 4 days. Drug cytotoxicity was determined by a standard XTT assay. To this end, sterile 1 mg/ml XTT solution in RPMI 1640 containing 5 μl/ml of 1.54 μg/ml phenazine methasulfate solution in sterile PBS was added to the cells (100 μl/well) and incubated for 4 to 16 hours at 37° C. and 5% CO2. The absorbance at λ420 was determined using a microplate reader. All the experiments were carried out in triplicate. SEM values were less than 10% (P<0.05). the concentrations of free doxorubicin and doxorubicin in Prep.

[2] = tested on: Lewis Lung Carcinoma (3LL-H59); test: Metastasis development after i.v. inoculation of 3LL-H59 cells; assay type: in vivo, Female C57BL/6 mice; settings: Dox 5.0 mg/kg, L61 0.25% w/v, PEG8000 1% w/v, Days 1, 4, 7, 10 animals per group
Method: A highly metastatic clonal subline H59 of Lewis Lung, Carcinoma (3LL-H59) was used as a model. […] These cells were cultured in D-MEM supplemented with 10% FCS at 37° C. in a humidified atmosphere with 5% CO2. After 7 to 10 passes in culture, the cells in their logarithmic growth phase were harvested with trypsin for the following experiments.
Animals. Female C57BL/6 mice were obtained from Charles River Canada Inc. (St. Constant, Quebec, Canada) and used at 6 to 7 weeks of age. Animals were grouped five per cage with air filter cover under a light (12-h light/dark cycle, light on at 06h00) and temperature-controlled environment (22 ±1° C.). All manipulations of animals were performed under a sterilized laminar. The animals had ad libitum access to Purina Mouse Chow (Pro Lab PMH 4018, Trademark of Agway, Syracuse, N.Y.) and water. […]
At Day 16 after tumor inoculation, the animals were sacrificed and subjected to routine metastasis inspection. All organs were routinely screened, although metastatic formations were normally detected only in the lung. […] The data are expressed as means±SEM for the number of metastatic sites and as the percentage of the animals having metastasis for the incidence of metastasis development. Statistical significance was calculated according to the multiple range test of Duncan-Kramer. […]

COc1cccc2c1C(=O)c1c(O)c3c(c(O)c1C2=O)C[C@@](O)(C(=O)CO)C[C@@H]3O[C@H]1C[C@H](N)[C@H](O)[C@H](C)O1 [Doxorubicin, doxorubicin]
IC50 [1]: 0.11 µg/mL (≈ 0.202 µM)
Incidence (animals having metastasis) ([2]; Day 16): 100%
Number of metast. sites on lung periphery ±SEM ([2]; counted Day 16): 8.90 ± 2.56
